Laboratory results taken from patent publication US6818215B2, “Antibodies to senescent cell-derived inhibiters of DNA synthesis” (priority 1991, dated 2004).

Assays:
Fibroblasts (L-929) = test: GST-SDI-1 fusion protein, thymidine incorporation; type: cell-based, Murine; conditions: 50 μg/ml
Experimental: (§1) As indicated above, SDI-1 has the capacity to suppress the proliferation of tumor cells. […] In the experiment, 5×10^3 cells were plated overnight at 37° C. (only for adherent cells) and then incubated with the SDI fusion protein. After 48 hours at 37° C., cells were pulsed with thymidine for 24 hours and then harvested. The results of this experiment are shown in Table 8; the thymidine incorporation by untreated cells was expressed as 100%. all determinations were made in quadruplicate.

[1] = tested on: Human umbilical vein endothelial cells; test: GST-SDI-1 fusion protein, thymidine incorporation; type: cell-based
Experimental: as §1

[2] = tested on: B16 murine melanoma cell line; test: Lipofectamine liposome-mediated delivery of SDI-1 protein; type: cell-based
C33A (HTB 31) = test: DNA synthesis inhibition by SDI-1 in pRb-deficient cells; type: cell-based, human
Experimental: Because SDI-1 inhibits the protein kinases that phosphorylate pRb, and unphosphorylated pRb is believed to negatively regulate E2F activity (Nevins, J. R., Science 258:424-429 (1992)), pRb is presumed to be a central mediator of SDI-1's effects. Since A31 cells express a normal Rb gene, the ability of SDI-1 to inhibit E2F activity, and possibly growth, in tumor cells that lack a functional pRb was tested. […] C33A cells were obtained from the American Type Culture Collection (Rockville, Md.).
By contrast, C33A and A31 cells were equally sensitive to SDI-1 inhibition of E2F activity. Thus, CMV-SDI-1 reduced DHFR-, cdc2- and SV/E2F-driven CAT activity to approximately equal extents in C33A and A31 cells. As expected CMV-SDI-1 had no effect on SV/E2Fm-driven CAT activity in either cell line.

[3] = tested on: SV40 transformed cell line GM639; test: Transient transfection of SDI-1, inhibition of DNA synthesis; type: cell-based
Source text: (§2) This provides further evidence that SDI-1 behaves like the inhibitor previously detected in senescent cells.

SUSMI = test: as above; type: cell-based
Source text: as §2

cdk2 protein = biological target: T1, cdk2 protein (Homo sapiens, UniProt P24941); test: Binding of in vitro translated SDI-1 deletion mutants to purified cdk2, anti-cdk2 immunoprecipitation; conditions: 45 μl translation product, 1 ug cdk2, 4° C.
T1 construct: host or cells: baculovirus expression system
Experimental: To determine whether the DNA synthesis inhibition caused by these mutants was occurring through inhibition of cdk kinases, the binding of in vitro translated deletion mutant proteins products with purified cdk2protein was examined. Thus, the various deletion mutants of SDI-1 were translated in reticulocyte lysates (Promega) using pBluescript based plasmids as transcription templates for the T7 RNA polymerase. For in vitro binding, 45 μl of the translation product was added to 500 μl binding buffer (50 mM Tris/HCl, pH 7.5, 120 mM NaCl, 2 mM EDTA, 0.1% NP-40, 1 mM NaF, 0.1 m.M sodium vanidate, 5 μg/ml leupeptin, 5 μg/ml soybean trypsin inhibitor, 5 μg/ml aprotinin) containing 1 ug cdk2 protein purified from a bacculovirus expression system. The mixture was gently rocked for 1 hour at 4° C. and then 7.5 μg anti-cdk2 rabbit polyclonal antibody was added. Mixing was continued for 1 hour at 4° C. The immunocomplex was absorbed by incubation with 40 μl protein G plus A beads for 2 hr. The matrices were then washed three times with 0.5 ml of binding buffer prior to electrophoresis and autoradiography.

## SDI-1: senescent cell derived inhibitor of DNA synthesis, 164 amino acid protein, SEQ ID NO:2
Fibroblasts (L-929)
  Relative Cell (% of Control): 4 ± 1 % of Control
[1]; 30 μg/ml
  Relative Cell (% of Control): 5 ± 1 % of Control
[1]; 50 μg/ml
  Relative Cell (% of Control): 2 ± 1 % of Control
[2]; 48 hr
  3H-Tdr Uptake: 2134 ± 294
  Cell Number: 7820 ± 141
  Ratio of SDI-1 Treated to BSA Treated, 3H-Tdr Uptake: 0.34
  Ratio of SDI-1 Treated to BSA Treated, Cell No.: 0.29
[2]; 72 hours after liposome treatment
  detection of SDI-1 in cells: not detectable
[2]; 72 hr
  3H-Tdr Uptake: 8765 ± 533
  Cell Number: 23710 ± 1485
  Ratio of SDI-1 Treated to BSA Treated, 3H-Tdr Uptake: 0.3
  Ratio of SDI-1 Treated to BSA Treated, Cell No.: 0.28
[2]; after 3-4 hours
  fraction of cells with SDI-1 detected in the nuclei: ½
[2]; after 9 hours
  fraction of cells with SDI-1 detected in the nuclei: ⅓
C33A (HTB 31)
  inhibition (antiproliferative effect): 40-50%
[3]
  inhibition (DNA synthesis): < 20%
SUSMI
  inhibition (DNA synthesis): 40%
cdk2 protein
  binding to purified cdk2 protein: bound cdk2 protein efficiently
